Four compounds from patent US20180235993A1 (priority 2000, published 2018) can be followed below.

The subject of one data set is VSV. The experiment in a line: microbe, parasite or virus in culture. The format is cell-based. The following applies: Vesicular stomatitis virus, read-out: Comparative Antiviral Activity EC50 VSV.
Another data set deals with YFV-17D. The experiment in a line: microbe, parasite or virus in culture. It is filed as cell-based, Yellow fever virus vaccine strain 17D.
Data set [1] has as its system Bovine Viral Diarrhea virus (BVDV). Put plainly: microbe, parasite or virus in culture. It is filed as cell-based.
Data set [2] concerns PICO (Cosxackie B1 and Polio Sabin). The experiment in a line: organism not typed. To be noted: Vero, read-out: Comparative Antiviral Activity EC50 PICO. It is filed as cell-based.
Data set [3] in a line: in vitro.
The next data set deals with HIV-1. The experiment in a line: Comparative antiviral activity (EC50), HIV-1. It is filed as cell-based. The following applies: Human immunodeficiency virus 1; Table 11.
Data set [4] has as its system Human bone marrow cells (BFU-E). The experiment in a line: Human bone marrow toxicity, BFU-E clonogenic assay. The format is cell-based. To be noted: human bone marrow colony formation, 14 to 18 days. The text has this: (§1) Human bone marrow cells were collected from normal healthy volunteers and the mononuclear population was separated by Ficoll-Hypaque gradient centrifugation as described previously by Sommadossi J-P, Carlisle R. “Toxicity of 3′-azido-3′-deoxythymidine and 9-(1,3-dihydroxy-2-propoxymethyl)guanine for normal human hematopoietic progenitor cells in vitro” Antimicrobial Agents and Chemotherapy 1987; 31:452-454; and Sommadossi J-P, Schinazi R F, Chu C K, Xie M-Y. “Comparison of cytotoxicity of the (−)- and (+)-enantiomer of 2′,3′-dideoxy-3′-thiacytidine in normal human bone marrow progenitor cells” Biochemical Pharmacology 1992; 44:1921-1925. The culture assays for CFU-GM and BFU-E were performed using a bilayer soft agar or methylcellulose method. Drugs were diluted in tissue culture medium and filtered. After 14 to 18 days at 37° C. in a humidified atmosphere of 5% CO2 in air, colonies of greater than 50 cells were counted using an inverted microscope. The results in Table 4 are presented as the percent inhibition of colony formation in the presence of drug compared to solvent control cultures.

Another data set concerns BVDV (strain NADL). Put plainly: Cell Protection Assay (CPA). The format is cell-based, Bovine Viral Diarrhea virus. How it is done:
The assay was performed essentially as described by Baginski, S. G.; Pevear, D. C.; Seipel, M.; Sun, S. C. C.; Benetatos, C. A.; Chunduru, S. K.; Rice, C. M. and M. S. Collett “Mechanism of action of a pestivirus antiviral compound” PNAS USA 2000, 97(14), 7981-7986. MDBK cells (ATCC) were seeded onto 96-well culture plates (4,000 cells per well) 24 hours before use. After infection with BVDV (strain NADL, ATCC) at a multiplicity of infection (MOI) of 0.02 plaque forming units (PFU) per cell, serial dilutions of test compounds were added to both infected and uninfected cells in a final concentration of 0.5% DMSO in growth medium. Each dilution was tested in quadruplicate. Cell densities and virus inocula were adjusted to ensure continuous cell growth throughout the experiment and to achieve more than 90% virus-induced cell destruction in the untreated controls after four days post-infection. After four days, plates were fixed with 50% TCA and stained with sulforhodamine B. The optical density of the wells was read in a microplate reader at 550 nm. The 50% effective concentration (EC50) values were defined as the compound concentration that achieved 50% reduction of cytopathic effect of the virus. FIGS. 4 and 5 provide a graphical illustration of the methodology used to arrive at the 50% effective concentration (EC50) values for β-D-2′-CH3-riboG and ribavirin. FIG. 6 compares the results of the CPA for β-D-2′-CH3-riboG, β-D-2′-CH3-riboC, riboU, β-D-2′-CH3-riboA and ribavirin

Data set [5] in a line: Cytotoxicity assay (sulforhodamine B, CC50), Human Hepatoma. The format is cell-based. The following applies: human; for CC50 at 4 days: 4 days incubation; for EC50 at 4 days: Table 13. How it is done: (§2) Cells were seeded at a rate of between 5×10^3 and 5×10^4/well into 96-well plates in growth medium overnight at 37° C. in a humidified CO2 (5%) atmosphere. New growth medium containing serial dilutions of the drugs was then added. After incubation for 4 days, cultures were fixed in 50% TCA and stained with sulforhodamineB. The optical density was read at 550 nm. The cytotoxic concentration was expressed as the concentration required to reduce the cell number by 50% (CC50).

Data set [6] can be described thus: in vitro. To be noted: cattle.
The subject of the next data set is BVDV (NADL strain). The experiment in a line: Yield Reduction Assay. It is filed as cell-based, Bovine Viral Diarrhea virus. Here is the method: The assay was performed as described by Baginski, S. G.; Pevear, D. C.; Seipel, M.; Sun, S. C. C.; Benetatos, C. A.; Chunduru, S. K.; Rice, C. M. and M. S. Collett “Mechanism of action of a pestivirus antiviral compound” PNAS USA 2000, 97(14), 7981-7986, with minor modifications. Briefly, MDBK cells were seeded onto 24-well plates (2×10^5 cells per well) 24 hours before infection with BVDV (NADL strain) at a multiplicity of infection (MOI) of 0.1 PFU per cell. Serial dilutions of test compounds were added to cells in a final concentration of 0.5% DMSO in growth medium. Each dilution was tested in triplicate. After three days, cell cultures (cell monolayers and supernatants) were lysed by three freeze-thaw cycles, and virus yield was quantified by plaque assay. Briefly, MDBK cells were seeded onto 6-well plates (5×10^5 cells per well) 24 h before use. Cells were inoculated with 0.2 mL of test lysates for 1 hour, washed and overlaid with 0.5% agarose in growth medium. After 3 days, cell monolayers were fixed with 3.5% formaldehyde and stained with 1% crystal violet (w/v in 50% ethanol) to visualize plaques. FIG. 9 is a graphical illustration of the results from the Yield Reduction Assay. FIG. 8 is an image of BVDV yield reduction in the presence of increasing concentrations of β-D-2′-CH3-riboC.

Data set [7] relates to Human bone marrow cells (CFU-GM). Put plainly: Human bone marrow toxicity, CFU-GM clonogenic assay. To be noted: read-out: IC50 CFU-GM. It is filed as cell-based.
Source text: as §1

Data set [8] can be described thus: Cytotoxicity assay (sulforhodamine B, CC50), MDBK. It is filed as cell-based. To be noted: cattle; MDBK cells, 4 days incubation. Here is the method:
as §2

The next data set concerns BVDV. Put plainly: Plaque Reduction Assay. It is filed as cell-based, Bovine Viral Diarrhea virus. Here is the method: For each compound the effective concentration was determined in duplicate 24-well plates by plaque reduction assays. Cell monolayers were infected with 100 PFU/well of virus. Then, serial dilutions of test compounds in MEM supplemented with 2% inactivated serum and 0.75% of methyl cellulose were added to the monolayers. Cultures were further incubated at 37° C. for 3 days, then fixed with 50% ethanol and 0.8% Crystal Violet, washed and air-dried. FIG. 7 is a graphical illustration of the results from the Plaque Reduction Assay. FIG. 8 is an image of BVDV plaque formation in the presence of increasing concentrations of β-D-2′-CH3-riboU.
For orientation: Plaque reduction counts the foci of infection that form in a cell layer.

The test system of the next data set is HepG2 cells. The experiment in a line: Mitochondria toxicity assay (L-lactic acid assay). To be noted: 4 day drug exposure. The format is cell-based. How it is done: HepG2 cells were cultured in 12-well plates as described above and exposed to various concentrations of drugs as taught by Pan-Zhou X-R, Cui L, Zhou X-J, Sommadossi J-P, Darley-Usmer V M. “Differential effects of antiretroviral nucleoside analogs on mitochondrial function in HepG2 cells” Antimicrob Agents Chemother 2000; 44:496-503. Lactic acid levels in the culture medium after 4 day drug exposure was measured using a Boehringer lactic acid assay kit. Lactic acid levels were normalized by cell number as measured by hemocytometer count.

[9] abbreviates: Yellow fever virus, read-out: Comparative Antiviral Activity EC50 YFV.
Where [10] appears, read: Bovine viral diarrhea virus isolates and strains, read-out: Comparative Antiviral Activity EC50 BVDV.
Where [11] appears, read: Bovine viral diarrhea virus isolates and strains, 96 h, MDBK cells infected with BVDV, 50% reduction of cytopathic effect, four days, read-out: EC50.
Where [12] appears, read: Bovine viral diarrhea virus isolates and strains, Table 13, BVDV, read-out: Cell Protection (EC50).
[13] abbreviates: Huh7 cells (human hepatoma), Huh7 cells.
Setting [14] is: Bovine viral diarrhea virus isolates and strains, Table 13, BVDV.
Setting [15] is: Bovine viral diarrhea virus isolates and strains, Table 13, BVDV, 90% virus suppression, read-out: Plaque Reduction (EC90).

pEC50, pIC50: −log10 of the molar value. Like-named read-outs stand apart in the source and are kept apart here.

Usually pEC50 stands for the EC50 on a negative log10 scale, so that one unit is a factor of ten. With `C[C@@]1(n2cnc3c(N)ncnc32)O[C@H](CO)[C@H](O)C1O` (stereo partly drawn) [β-D-1′-CH3-riboA, 1′-C-methylriboadenine], the pEC50 is below 4.00 in the data set on VSV; 5.15 in the data set with YFV-17D (setting [9]); 5.00 in data set [1] (setting [10]); 4.29 in [2]; below 4.74 in the data set on HIV-1. The CC50 in “in vitro [3]” is above 100 µM; in the data set “in vitro [3]” (African green monkey), above 100 µM; in “in vitro [3]” (hamster) it was 200 µM; in “in vitro [3]” (human), 18 µM.
In general, pIC50 refers to the IC50 on a negative log10 scale, so that one unit is a factor of ten. A word on the EC50: it is the concentration needed to bring the measured effect to its halfway point. As usually defined, the EC90 is the concentration at which the effect reaches the 90% level. Turning to `NC(=O)c1ncn([C@@H]2O[C@H](CO)[C@@H](O)[C@H]2O)n1` [Ribavirin, reference compound], the pIC50 in data set [4] (Bone marrow cell) was around 6.00; in [7] (Homo sapiens, CFU-GM) it was around 5.30. Moreover, the pEC50 is below 5.52 in the data set with BVDV (strain NADL) (setting [11]), below 5.52 with BVDV (strain NADL) (setting [12]), 4.52 in the data set with YFV-17D (setting [9]) and below 4.52 in [2]. In addition, the CC50 at 4 days was determined as 150 µM in data set [5] (HepG2 cells (human hepatoma), HepG2 cells, read-out: CC50 HepG2); 25 µM in data set [5] (Huh7 cells (human hepatoma), Huh7 cells, read-out: CC50 Huh7); 5 µM in [8]. For the same compound, the EC50 at 4 days in data set [5] (setting [13]) stood at 20 µM. For the same compound, the CC50 was found to be 5 µM in the data set “in vitro [6]”, 11 µM in “in vitro [3]” (African green monkey) and 50 µM in “in vitro [3]” (hamster). Further, in the data set on BVDV (NADL strain), the “Yield Reduction 6 log10 reduction (μM)” value was “toxic”. Also, the figures for the EC90 with BVDV (NADL strain) (setting [14]) and in the data set with BVDV (setting [15]) were above 20 µM and above 200 µM, respectively.
`C[C@@]1(O)[C@H](O)[C@@H](CO)O[C@H]1n1ccc(N)nc1=O` [β-D-2′-CH3-riboC]: the pIC50 is below 5.00 in data set [4] and below 5.00 in data set [7] (human bone marrow colony formation, 14 to 18 days). In addition, the CC50 in the data set on MDBK cells is 100 µM; with various cell systems it was above 100 µM; in the data set with various cell systems (read-out: YFV CC50, Table 12, reduce the viability of cells by 50%, YFV-BHK system), above 100 µM. Besides, the pEC50 is 5.70 in the data set on BVDV (strain NADL) (read-out: Cell Protection (EC50)); 5.70 in the data set on BVDV (strain NADL) (read-out: EC50); 4.15 in the data set with YFV-17D (Table 12, reduce the plaque number by 50%, YFV-BHK, read-out: YFV EC50); 5.43 in data set [1] (read-out: BVDV EC50). Moreover, the “Conc. for 6-log Reduction” value in the data set with BVDV (NADL strain) was determined as 20 μM. In addition, the EC90 is below 4 µM in the data set on BVDV (NADL strain), below 9 µM in the data set on BVDV (read-out: EC90) and below 9 µM in the data set on BVDV (read-out: Plaque Reduction (EC90)). The “Yield Reduction 6 log10 reduction (μM)” value in the data set with BVDV (NADL strain) is given as 20 μM. Also, the lactate came to 2.52 mg/10^6 cell in the data set with HepG2 cells (Conc. 1 μM), 2.36 mg/10^6 cell in the data set with HepG2 cells (Conc. 10 μM), 2.26 mg/10^6 cell in the data set with HepG2 cells (Conc. 50 μM) and 2.21 mg/10^6 cell with HepG2 cells (Conc. 100 μM). For the same compound, the “lactate % of Control” value in the data set on HepG2 cells (Conc. 1 μM) was 115.3%; in the data set with HepG2 cells (Conc. 10 μM), 107.9%; in the data set on HepG2 cells (Conc. 50 μM) it was 103.4%; in the data set on HepG2 cells (Conc. 100 μM), 101.2%.
For `CC1(O)[C@@H](O)[C@@H](CO)O[C@H]1n1cnc2c(N)ncnc21` (stereo partly drawn) [β-D-2′-CH3-riboA, 2′-C-methylriboadenine], the pEC50 is below 4.00 in the data set with VSV; 5.70 in the data set with BVDV (strain NADL) (setting [11]); 5.70 in the data set with BVDV (strain NADL) (setting [12]); 6.70 in the data set on YFV-17D (setting [9]); 7.00 in data set [1] (setting [10]); 5.30 in [2]. In the data set on HIV-1, this compound gave a pEC50 below 5.18. Also, the pIC50 in data set [4] (Bone marrow cell) was below 4.00; in data set [7] (Homo sapiens, CFU-GM), below 4.00. In addition, in [5] (setting [13]), the EC50 at 4 days was determined as 50 µM. Besides, the CC50 in “in vitro [6]” was found to be 20 µM; in the data set “in vitro [3]”, 75 µM; in the data set “in vitro [3]” (African green monkey), 22 µM; in the data set “in vitro [3]” (hamster) it was 22 µM; in the data set “in vitro [3]” (human) it was 6.6 µM. Also, in the data set with BVDV (NADL strain), the “Conc. for 6-log Reduction” value came to 9 μM. The “Yield Reduction 6 log10 reduction (μM)” value in the data set with BVDV (NADL strain) came out at 9 μM. Besides, the EC90 is below 2 µM with BVDV (NADL strain) (setting [14]); below 3 µM with BVDV (Bovine viral diarrhea virus isolates and strains, 72 h, concentration to obtain 90% virus suppression, 3 days, read-out: EC90); below 3 µM with BVDV (setting [15]).
